ChEMBL document CHEMBL1126483 (Bioorg Med Chem Lett, 1993)
Peptide text beside a SMILES is read from it.

What follows are compounds tested against Neurotensin receptor type 1 (Mus musculus) (UniProt O88319) (assay: Tested for change in binding affinity to Neurotensin (NT) receptor in neonatal mouse whole brain (minus cerebellum)). Details: not given.
Type: tissue-based

Chain of Neurotensin receptor type 1 (Mus musculus) (O88319 whole entry): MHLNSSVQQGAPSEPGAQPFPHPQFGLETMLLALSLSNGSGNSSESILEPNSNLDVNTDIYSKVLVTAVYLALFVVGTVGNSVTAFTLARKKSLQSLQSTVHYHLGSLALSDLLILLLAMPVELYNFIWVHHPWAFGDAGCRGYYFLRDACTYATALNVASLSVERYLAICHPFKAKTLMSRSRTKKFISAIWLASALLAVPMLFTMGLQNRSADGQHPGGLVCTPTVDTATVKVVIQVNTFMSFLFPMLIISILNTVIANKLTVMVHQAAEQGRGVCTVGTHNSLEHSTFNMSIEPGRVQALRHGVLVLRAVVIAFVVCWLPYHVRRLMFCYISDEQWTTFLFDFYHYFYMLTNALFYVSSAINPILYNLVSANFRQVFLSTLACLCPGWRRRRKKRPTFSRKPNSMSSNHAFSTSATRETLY

SMILES	Ki ratio
CC[C@@H](C)[C@H](NC(=O)[C@H](C)NC(=O)[C@@H]1CCCN1C(=O)[C@H](CCCN=C(N)N)NC(=O)[C@@H](N)CCCN=C(N)N)C(=O)N[C@@H](CC(C)C)C(=O)O	6100
CC[C@@H](C)[C@H](NC(=O)[C@H](C)NC(=O)[C@@H]1CCCN1C(=O)[C@H](CCCN=C(N)N)NC(=O)[C@@H](N)CCCN=C(N)N)C(=O)N[C@@H](C)C(=O)O	220000
CC[C@@H](C)[C@H](NC(=O)[C@H](Cc1ccc(O)cc1)NC(=O)[C@@H]1CCCN1C(=O)[C@H](CCCN=C(N)N)NC(=O)[C@@H](N)CCCN=C(N)N)C(=O)N[C@@H](C)C(=O)O	11000
CC[C@@H](C)[C@H](NC(=O)[C@H](Cc1ccc(O)cc1)NC(=O)[C@@H]1CCCN1C(=O)[C@H](C)NC(=O)[C@@H](N)CCCN=C(N)N)C(=O)N[C@@H](CC(C)C)C(=O)O	120
CC[C@@H](C)[C@H](NC(=O)[C@H](Cc1ccc(O)cc1)NC(=O)[C@H](C)NC(=O)[C@H](CCCN=C(N)N)NC(=O)[C@@H](N)CCCN=C(N)N)C(=O)N[C@@H](CC(C)C)C(=O)O	50
CC(C)C[C@H](NC(=O)[C@H](C)NC(=O)[C@H](Cc1ccc(O)cc1)NC(=O)[C@@H]1CCCN1C(=O)[C@H](CCCN=C(N)N)NC(=O)[C@@H](N)CCCN=C(N)N)C(=O)O (H-RRPYAL-OH)	250
CC[C@@H](C)[C@H](NC(=O)[C@H](Cc1ccc(O)cc1)NC(=O)[C@@H]1CCCN1C(=O)[C@H](CCCN=C(N)N)NC(=O)[C@H](C)N)C(=O)N[C@@H](CC(C)C)C(=O)O	14

The compounds below were run against Neurotensin receptor type 1 (Mus musculus, UniProt O88319) (assay: Inhibition of specific binding of [125I]-Tyr3-NT(1-13) to NT receptors in neonatal mouse whole brain (minus cerebellum)). Details: not given.
Chain of Neurotensin receptor type 1 (O88319 whole entry): as above
Type: tissue-based

SMILES	Ki [nM]
CC[C@H](C)[C@H](NC(=O)[C@H](C)NC(=O)[C@@H]1CCCN1C(=O)[C@H](CCCN=C(N)N)NC(=O)[C@@H](N)CCCN=C(N)N)C(=O)N[C@@H](CC(C)C)C(=O)O	110
CC[C@H](C)[C@H](NC(=O)[C@H](Cc1ccc(O)cc1)NC(=O)[C@@H]1CCCN1C(=O)[C@H](CCCNC(=N)N)NC(=O)[C@H](CCCNC(=N)N)NC(=O)[C@@H]1CCCN1C(C)=O)C(=O)N[C@@H](CC(C)C)C(=O)O (Ac-PRRPYIL-OH)	0.1
CC[C@H](C)[C@H](NC(=O)[C@H](Cc1ccc(O)cc1)NC(=O)[C@H](C)NC(=O)[C@H](CCCN=C(N)N)NC(=O)[C@@H](N)CCCN=C(N)N)C(=O)N[C@@H](CC(C)C)C(=O)O	0.92
CC[C@H](C)[C@H](NC(=O)[C@H](Cc1ccc(O)cc1)NC(=O)[C@@H]1CCCN1C(=O)[C@H](CCCNC(=N)N)NC(=O)[C@H](C)N)C(=O)N[C@@H](CC(C)C)C(=O)O	0.25
CC[C@H](C)[C@H](NC(=O)[C@H](Cc1ccc(O)cc1)NC(=O)[C@@H]1CCCN1C(=O)[C@H](C)NC(=O)[C@@H](N)CCCN=C(N)N)C(=O)N[C@@H](CC(C)C)C(=O)O	2.1
CC[C@H](C)[C@H](NC(=O)[C@H](Cc1ccc(O)cc1)NC(=O)[C@@H]1CCCN1C(=O)[C@H](CCCNC(=N)N)NC(=O)[C@H](CCCNC(=N)N)NC(=O)[C@@H]1CCCN1C(=O)[C@H](CCCCN)NC(C)=O)C(=O)N[C@@H](CC(C)C)C(=O)O	0.024
CC[C@H](C)[C@H](NC(=O)[C@H](Cc1ccc(O)cc1)NC(=O)[C@@H]1CCCN1C(=O)[C@H](CCCNC(=N)N)NC(=O)[C@H](CCCNC(=N)N)NC(=O)[C@@H]1CCCN1C(=O)[C@H](CCCCN)NC(=O)[C@H](CC(N)=O)NC(=O)[C@H](CCC(=O)O)NC(C)=O)C(=O)N[C@@H](CC(C)C)C(=O)O (Ac-ENKPRRPYIL-OH)	0.12
CC[C@H](C)[C@H](NC(=O)[C@H](Cc1ccc(O)cc1)NC(=O)[C@@H]1CCCN1C(=O)[C@H](CCCNC(=N)N)NC(=O)[C@@H](N)CCCNC(=N)N)C(N)=O	12000
CC[C@H](C)[C@H](NC(=O)[C@H](Cc1ccc(O)cc1)NC(=O)[C@@H]1CCCN1C(=O)[C@H](CCCNC(=N)N)NC(=O)[C@H](CCCNC(=N)N)NC(=O)[C@@H]1CCCN1C(=O)[C@H](CCCCN)NC(=O)[C@H](CC(N)=O)NC(=O)[C@H](CCC(=O)O)NC(=O)[C@H](Cc1ccc(O)cc1)NC(=O)[C@H](CC(C)C)NC(C)=O)C(=O)N[C@@H](CC(C)C)C(=O)O	0.11
CC(C)C[C@H](NC(=O)[C@H](C)NC(=O)[C@H](Cc1ccc(O)cc1)NC(=O)[C@@H]1CCCN1C(=O)[C@H](CCCNC(=N)N)NC(=O)[C@@H](N)CCCNC(=N)N)C(=O)O (H-RRPYAL-OH)	4.5
CC[C@H](C)[C@H](NC(=O)[C@H](Cc1ccc(O)cc1)NC(=O)[C@@H]1CCCN1C(=O)[C@H](CCCNC(=N)N)NC(=O)[C@H](CCCNC(=N)N)NC(=O)[C@@H]1CCCN1C(=O)[C@H](CCCCN)NC(=O)[C@H](CC(N)=O)NC(C)=O)C(=O)N[C@@H](CC(C)C)C(=O)O (Ac-NKPRRPYIL-OH)	0.013
CC[C@H](C)[C@H](NC(=O)[C@H](C)NC(=O)[C@@H]1CCCN1C(=O)[C@H](CCCN=C(N)N)NC(=O)[C@@H](N)CCCN=C(N)N)C(=O)N[C@@H](C)C(=O)O	3900
CC[C@H](C)[C@H](NC(=O)[C@H](Cc1ccc(O)cc1)NC(=O)[C@@H]1CCCN1C(=O)[C@H](CCCN=C(N)N)NC(=O)[C@H](CCCN=C(N)N)NC(=O)[C@@H]1CCCN1C(=O)[C@H](CCCCN)NC(=O)[C@H](CC(N)=O)NC(=O)[C@H](CCC(=O)O)NC(=O)[C@H](Cc1ccc(O)cc1)NC(C)=O)C(=O)N[C@@H](CC(C)C)C(=O)O (Ac-YENKPRRPYIL-OH)	0.21
CC[C@H](C)[C@H](NC(=O)[C@H](Cc1ccc(O)cc1)NC(=O)[C@@H]1CCCN1C(=O)[C@H](CCCNC(=N)N)NC(=O)[C@@H](N)CCCNC(=N)N)C(=O)N[C@@H](C)C(=O)O	200

What follows are compounds tested against Neurotensin receptor type 1 (Mus musculus) (UniProt O88319). Details: Cerebellum.
Description: Tested for change in binding affinity in neonatal mouse whole brain (minus cerebellum)

SMILES	Ki(1.8x10e-11) [M]
CC[C@@H](C)[C@H](NC(=O)[C@H](Cc1ccc(O)cc1)NC(=O)[C@@H]1CCCN1C(=O)[C@H](CCCNC(=N)N)NC(=O)[C@@H](N)CCCNC(=N)N)C(=O)N[C@@H](CC(C)C)C(=O)O	1
